Assay results published in patent US4731109A, “Herbicidal 2-haloacetanilides” (Monsanto Company, priority 1982, dated 1988).

How the values were obtained:
rape = experiment: Greenhouse pre-emergence GR15/GR85 selectivity test; assay type: in vivo; details: Table XV
Excerpt: (§1) A good grade of top soil is placed in aluminum pans and compacted to a depth of three-eighths to one-half inch from the top of the pan. On the top of the soil is placed a number of seeds or vegetative propagules of various plant species. The soil required to level fill the pans after seeding or adding vegetative propagules is weighed into a pan. The soil and a known amount of the active ingredient applied in a solvent or as a wettable powder suspension are thoroughly mixed, and used to cover the prepared pans. After treatment, the pans are given an initial overhead irrigation of eater, equivalent to one-fourth inch (0.64 cm) rainfall, then watered by subirrigation as need to give adequate moisture for germination and growth. As an alternative procedure, the overhead irrigation may be omitted. Observations are made about 2-3 weeks after seeding and treatment.
(§2) In the discussion and tables of data below, reference is made to herbicide application rates symbolized as "GR15 " and "GR85 "; these rates are given in kilograms per hectare (kg/ha) which are convertible into pounds per acre (lbs/A) by dividing the kg/ha rate by 1.12.
(§3) A further guide to the effectiveness of a chemical as a selective herbicide is the "selectivity factor" ("SF") for a herbicide in given crops and weeds. The selectivity factor is a measure of the relative degree of crop safety and weed injury and is expressed in terms of the GR15 /GR85 ratio, i.e., the GR15 rate for the crop divided by the GR85 rate for the weed, both rates in kg/ha (lb/A). In the tables below, selectivity factors are shown in parenthesis following the GR85 rate for each weed; the symbol "NS" indicates "non-selective". Marginal or undetermined selectivity is indicated by a dash (--).
(§4) Additionally, pre-emergence herbicidal data from other tests have established that compounds according to this invention also selectively suppress quackgrass, yellow nutsedge and/or other weeds in one or more of the crops cotton, peanuts, bush beans and/or rape. For example, in Table VI are presented data showing the herbicidal selectivity of the compounds of Examples 1 and 2 against quackgrass in rape and snap beans. Unless otherwise noted; greenhouse tests in Table VI and in other tables below involved herbicide treatments by soil incorporation and an initial overhead irrigation followed by subirrigation as described above.
In another greenhouse test, the compounds of Examples 3-5, 9 and 10 were tested for their herbicidal efficacy against a variety of resistant annual and perennial weeds in rape.

shattercane = experiment: as above; assay type: in vivo; details: Table XVI
Excerpt: as §1, with “After treatment, the pans are given an initial overhead irrigation of eater, equivalent to one-fourth inch (0.64 cm) rainfall, then watered by subirrigation as need to give adequate moisture for germination and growth.” left out
as §3
(§5) Unless otherwise noted; greenhouse tests in Table VI and in other tables below involved herbicide treatments by soil incorporation and an initial overhead irrigation followed by subirrigation as described above.

itchgrass = experiment: as above; assay type: in vivo; details: Table XVI
Excerpt: as §1, with “After treatment, the pans are given an initial overhead irrigation of eater, equivalent to one-fourth inch (0.64 cm) rainfall, then watered by subirrigation as need to give adequate moisture for germination and growth.” left out
as §3, §5

alexandergrass = experiment: as above; assay type: in vivo; details: Table XV
Excerpt: as §1, with “After treatment, the pans are given an initial overhead irrigation of eater, equivalent to one-fourth inch (0.64 cm) rainfall, then watered by subirrigation as need to give adequate moisture for germination and growth.” left out
as §3, §5

Texas panicum = experiment: as above; assay type: in vivo; details: Table XVI
Excerpt: as §1, with “After treatment, the pans are given an initial overhead irrigation of eater, equivalent to one-fourth inch (0.64 cm) rainfall, then watered by subirrigation as need to give adequate moisture for germination and growth.” left out
as §3, §5

fall panicum = experiment: as above; assay type: in vivo; details: Table XVI
Excerpt: as §1, with “After treatment, the pans are given an initial overhead irrigation of eater, equivalent to one-fourth inch (0.64 cm) rainfall, then watered by subirrigation as need to give adequate moisture for germination and growth.” left out
as §3, §5

red rice = experiment: as above; assay type: in vivo; details: Table XVI
Excerpt: as §1, with “After treatment, the pans are given an initial overhead irrigation of eater, equivalent to one-fourth inch (0.64 cm) rainfall, then watered by subirrigation as need to give adequate moisture for germination and growth.” left out
as §3, §5

seedling johnsongrass = experiment: as above; assay type: in vivo; details: Table XVI
Excerpt: as §1, with “After treatment, the pans are given an initial overhead irrigation of eater, equivalent to one-fourth inch (0.64 cm) rainfall, then watered by subirrigation as need to give adequate moisture for germination and growth.” left out
as §3, §5

soybeans = experiment: Herbicidal effect in a variety of soil types; assay type: in vivo; details: Table XVII C
wild proso millet = experiment: Greenhouse pre-emergence GR15/GR85 selectivity test; assay type: in vivo, wild proso millet (panicum milicaeum); details: Table XVI
Excerpt: as §1, with “After treatment, the pans are given an initial overhead irrigation of eater, equivalent to one-fourth inch (0.64 cm) rainfall, then watered by subirrigation as need to give adequate moisture for germination and growth.” left out
as §3, §5

Yellow Nutsedge = experiment: as above; assay type: in vivo
Excerpt: as §1, with “After treatment, the pans are given an initial overhead irrigation of eater, equivalent to one-fourth inch (0.64 cm) rainfall, then watered by subirrigation as need to give adequate moisture for germination and growth.” left out
as §3
(§6) These weeds are commonly associated with such major crops as corn and soybeans. […] The test procedure was the same as described for Tables II and III but modified by the application of an initial overhead irrigation equivalent to 1/4" (0.64 cm) rainfall; subsequent watering was accomplished by subirrigation. "NS" means non-selective within the test limits.
as §5

Quackgrass [1] = experiment: as above; assay type: in vivo
Excerpt: as §1, with “After treatment, the pans are given an initial overhead irrigation of eater, equivalent to one-fourth inch (0.64 cm) rainfall, then watered by subirrigation as need to give adequate moisture for germination and growth.” left out
as §3, §6, §5

corn = experiment: as above; assay type: in vivo
Excerpt: as §1, §2, §3
In Table IV pre-emergence herbicidal activity data are presented comparing the relative efficacy of the invention compounds and said prior art compounds as selective herbicides against the resistant and troublesome perennial weeds quackgrass and yellow nutsedge in soybeans and corn, respectively. These weeds are commonly associated with such major crops as corn and soybeans. The test data in Table IV were obtained under identical procedural conditions and represent two replicate runs (except for the compound of Example 9 which was present in one comparative test). The test procedure was the same as described for Tables II and III but modified by the application of an initial overhead irrigation equivalent to 1/4" (0.64 cm) rainfall; subsequent watering was accomplished by subirrigation. "NS" means non-selective within the test limits.
as §4

Quackgrass [2] = experiment: Herbicidal effect in a variety of soil types; assay type: in vivo; details: Table XVII C; for selectivity factor (GR15/GR85): in soybeans
Excerpt: The herbicide treatments were by soil incorporation with seeds planted 0.375 in (0.95 cm) deep, with 0.25 in (0.64 cm overhead irrigation. Observations were made about three weeks after treatment. Selectivity factors are shown in parenthesis.

## CCOCN(C(=O)CCl)c1c(CC)cccc1C(F)(F)F [Example 9, N--(ethoxymethyl)-2'-trifluoromethyl-6'-ethyl-2-chloroacetanilide]
rape
  GR15 Rate: 0.98 Kg/Ha
shattercane
  GR85 Rate: 0.21 Kg/Ha
shattercane; in lima beans
  selectivity factor (GR15/GR85): 3.6
shattercane; in peanuts
  selectivity factor (GR15/GR85): 4.3
itchgrass
  GR85 Rate: 0.53 Kg/Ha
itchgrass; in lima beans
  selectivity factor (GR15/GR85): 1.4
itchgrass; in peanuts
  selectivity factor (GR15/GR85): 1.7
alexandergrass
  GR85 Rate: 0.19 Kg/Ha
alexandergrass; in rape
  selectivity factor (GR15/GR85): 5.2
Texas panicum
  GR85 Rate: 0.56 Kg/Ha
Texas panicum; in lima beans
  selectivity factor (GR15/GR85): 1.3
Texas panicum; in peanuts
  selectivity factor (GR15/GR85): 1.6
Fall panicum
  GR85 Rate: 0.13 Kg/Ha
Fall panicum; in lima beans
  selectivity factor (GR15/GR85): 5.8
Fall panicum; in peanuts
  selectivity factor (GR15/GR85): 6.9
Red rice
  GR85 Rate: 0.42 Kg/Ha
Red rice; in lima beans
  selectivity factor (GR15/GR85): 1.8
Red rice; in peanuts
  selectivity factor (GR15/GR85): 2.1
Seedling johnsongrass
  GR85 Rate: 0.25 Kg/Ha
Seedling johnsongrass; in lima beans
  selectivity factor (GR15/GR85): 3
Seedling johnsongrass; in peanuts
  selectivity factor (GR15/GR85): 3.6
soybeans; Drummer silty clay
  GR15: > 2.2 Kg/Ha
soybeans; Florida muck
  GR15: > 2.2 Kg/Ha
soybeans; Ray silt loam
  GR15: > 2.2 Kg/Ha
soybeans; Sarpy silty clay
  GR15: > 2.2 Kg/Ha
soybeans; Wabash silty clay
  GR15: 3.0 Kg/Ha
Wild proso millet
  GR85 Rate: 0.56 Kg/Ha
Wild proso millet; in lima beans
  selectivity factor (GR15/GR85): 1.3
Wild proso millet; in peanuts
  selectivity factor (GR15/GR85): 1.6
Yellow Nutsedge; Table IV, Replicate #2
  GR85: 0.17 Kg/Ha
Yellow Nutsedge; Table XII
  GR85: 0.21 Kg/Ha
Yellow Nutsedge; in cotton
  GR85: 0.47 kg/ha
  S.F. (GR15/GR85): 1.5
Yellow Nutsedge; in rice
  selectivity with respect to yellow nutsedge in rice: non-selective
Yellow Nutsedge; yellow nutsedge in corn, Table IV, Replicate #2
  selectivity factor (GR15/GR85): 13
Yellow Nutsedge; yellow nutsedge in corn, Table XII
  selectivity factor (GR15/GR85): 12
Yellow Nutsedge; yellow nutsedge in cotton, Table XII
  selectivity factor (GR15/GR85): 12
Yellow Nutsedge; yellow nutsedge in soybeans, Table IV, Replicate #2
  selectivity factor (GR15/GR85): 12.5
Yellow Nutsedge; yellow nutsedge in soybeans, Table XII
  selectivity factor (GR15/GR85): 9.5
Quackgrass [1]; Table IV, Replicate #2
  GR85: 0.20 Kg/Ha
Quackgrass [1]; Table XIII
  GR85: 0.36 Kg/Ha
Quackgrass [1]; in wheat
  selectivity against quackgrass in wheat: non-selective
Quackgrass [1]; quackgrass in corn, Table IV, Replicate #2
  selectivity factor (GR15/GR85): 11
Quackgrass [1]; quackgrass in corn, Table XIII
  selectivity factor (GR15/GR85): 4.7
Quackgrass [1]; quackgrass in soybeans, Table IV, Replicate #2
  selectivity factor (GR15/GR85): 10.5
Quackgrass [1]; quackgrass in soybeans, Table XIII
  selectivity factor (GR15/GR85): 4.7
corn; Table IV, Replicate #2
  GR15: 2.2 Kg/Ha
corn; Table XII
  GR15: 2.5 Kg/Ha
corn; Table XIII
  GR15: 1.7 Kg/Ha
Quackgrass [2]; Drummer silty clay
  GR85: 0.17 Kg/Ha
  selectivity factor (GR15/GR85): > 13
Quackgrass [2]; Florida muck
  GR85: 0.73 Kg/Ha
  selectivity factor (GR15/GR85): > 3
Quackgrass [2]; Ray silt loam
  GR85: 0.13 Kg/Ha
  selectivity factor (GR15/GR85): > 16.5
Quackgrass [2]; Sarpy silty clay
  GR85: 0.13 Kg/Ha
  selectivity factor (GR15/GR85): > 16.5
Quackgrass [2]; Wabash silty clay
  GR85: 0.24 Kg/Ha
  selectivity factor (GR15/GR85): 12.5
